Source: patent US20260356957A1, “METHODS FOR TREATMENT OF NON-SMALL CELL LUNG CANCER (NSCLC)” (Janssen Biotech, Inc., priority 2023, published 2026)

Assay: MARIPOSA Phase 3, adverse events
Format: in vivo, human
Text: • 1. […] Incidence and Severity of Adverse Events (AEs) [Time Frame: Up to approximately 60 months]. Incidence and severity of treatment emergent adverse events (TEAEs) will be reported. Any adverse event occurring at or after the initial administration of study treatment through the day of last dose plus 30 days, or until the start of subsequent anticancer therapy (if earlier), is considered to be treatment emergent. • 8. Number of Participants with Clinical Laboratory Abnormalities [Time Frame: Up to approximately 60 months]. Number of participants with clinical laboratory abnormalities (serum chemistry, hematology, blood coagulation, and urine samples) will be reported. • 9. Number of Participants with Vital Signs Abnormalities [Time Frame: Up to approximately 60 months]. Number of participants with vital signs abnormalities (temperature, heart rate, respiratory rate, oxygen saturation, blood pressure) will be reported. • 10. Number of Participants with Physical Examination Abnormalities [Time Frame: Up to approximately 60 months]. Number of participants with physical examination abnormalities will be reported. • 11. […] The NSCLC-SAQ contains 7 items that assess cough, pain, dyspnea, fatigue, and poor appetite over a 7-day recall period. Each multi-item scale and individual item will be summarized using count and percent by visit. • 15. […] EORTC-QLQ-C30 is a core 30-item questionnaire for evaluating the health-related quality of life (HRQOL) of participants participating in cancer clinical studies. • 16.

[1] = TEAE leading to dose reductions of any study agent
[2] = TEAE leading to interruptions of any study agent
[3] = adverse events, listed as osimertinib
[4] = pneumonitis and interstitial lung disease

Compound: C=CC(=O)Nc1cc(Nc2nccc(-c3cn(C)c4ccccc34)n2)c(OC)cc1N(C)CCN(C)C [Osimertinib]
- Skin lesion [1]: 0 no. (%)
- Stomatitis [1]: 0 no. (%)
- Asthenia [2]: 1 (0.2) no. (%)
- COVID-19 [2]: 36 (8) no. (%)
- Deep vein thrombosis [2]: 2 (0.5) no. (%)
- Dermatitis acneiform [2]: 1 (0.2) no. (%)
- Diarrhea [2]: 6 (1) no. (%)
- Hypoalbuminemia [2]: 0 no. (%)
- Increased alanine aminotransferase [2]: 12 (3) no. (%)
- Increased aspartate aminotransferase [2]: 11 (3) no. (%)
- Increased γ-glutamyltransferase [2]: 5 (1) no. (%)
- Paronychia [2]: 4 (1) no. (%)
- Peripheral edema [2]: 0 no. (%)
- Pneumonia [2]: 18 (4) no. (%)
- Pulmonary embolism [2]: 9 (2) no. (%)
- Rash [2]: 4 (1) no. (%)
- Stomatitis [2]: 4 (1) no. (%)
- Any venous thromboembolism event leading to death (VTE): 2 (0.5) no. (%)
- Any venous thromboembolism event leading to discontinuation of any agent (VTE): 2 (0.5) no. (%)
- Any venous thromboembolism event, Grade 1 (VTE): 0 no. (%)
- Any venous thromboembolism event, Grade 2 (VTE): 24 (6) no. (%)
- Any venous thromboembolism event, Grade 3 (VTE): 12 (3) no. (%)
- Any venous thromboembolism event, Grade 4 (VTE): 1 (0.2) no. (%)
- Any venous thromboembolism event, Grade 5 (VTE): 2 (0.5) no. (%)
- Axillary vein thrombosis (VTE event): 0 no. (%)
- Deep vein thrombosis (VTE event): 11 (3) no. (%)
- Embolism (VTE event): 3 (1) no. (%)
- Embolism venous (VTE event): 1 (0.2) no. (%)
- Jugular vein thrombosis (VTE event): 0 no. (%)
- Pelvic venous thrombosis (VTE event): 1 (0.2) no. (%)
- Portal vein thrombosis (VTE event): 0 no. (%)
- Post thrombotic syndrome (VTE event): 0 no. (%)
- Pulmonary embolism (VTE event): 20 (5) no. (%)
- Pulmonary infarction (VTE event): 0 no. (%)
- Pulmonary thrombosis (VTE event): 1 (0.2) no. (%)
- Sigmoid sinus thrombosis (VTE event): 0 no. (%)
- Superficial vein thrombosis (VTE event): 0 no. (%)
- Superior sagittal sinus thrombosis (VTE event): 0 no. (%)
- Superior vena cava syndrome (VTE event): 1 (0.2) no. (%)
- Thrombophlebitis (VTE event): 4 (1) no. (%)
- Thrombosis (VTE event): 1 (0.2) no. (%)
- Vena cava thrombosis (VTE event): 0 no. (%)
- Venous thrombosis (VTE event): 1 (0.2) no. (%)
- Venous thrombosis limb (VTE event): 1 (0.2) no. (%)
- Any event leading to discontinuations of any study agent (adverse events): 58 (14) no. (%)
- Any event leading to interruptions of any study agent (adverse events): 165 (39) no. (%)
- Any event leading to reductions of any study agent (adverse events): 23 (5) no. (%)
- Any event resulting in death (adverse events): 31 (7) no. (%)
- Any serious event (adverse events): 143 (33) no. (%)
- Grade ≥3 (adverse events): 183 (43) no. (%)
- Any event (adverse events, safety population): 425 (99) no. (%)
- Any event leading to discontinuations of any study agent [3]: 58 (14%) no. (%)
- Any event leading to interruptions of any study agent [3]: 165 (39%) no. (%)
- Any event leading to reductions of any study agent [3]: 23 (5%) no. (%)
- Any event resulting in death [3]: 31 (7%) no. (%)
- Interstitial lung disease/pneumonitis (any grade, both groups): 3%
- Interstitial lung disease/pneumonitis, grade 3 or higher (both groups): 1%
- Adverse events of grade 3 or higher (in vivo): 43%
- Discontinuations of all agents due to treatment-related adverse events (in vivo): 3%
- Receiving anticoagulation at time of first VTE (in vivo): 0%
- Serious adverse events (in vivo): 33%
- Venous thromboembolic (VTE) events (in vivo): 9%
- VTE events in the first 4 months of treatment (of VTE events): 33%
- First bleeding event while on anticoagulants (on anticoagulants): 14 (3) no. (%)
- Recurrent venous thromboembolism event while on anticoagulants (on anticoagulants): 0 no. (%)
- Anticoagulation concomitant use (on study): 81 (19) no. (%)
- Interstitial lung disease, Duration of event, median no. of days (range) [4]: 20 (1-189) days
- Interstitial lung disease, No. of days to first onset, median (range) [4]: 115 (9-512) days
- Interstitial lung disease, No. of patients (%) [4]: 13 (3) no. (%)
- Alanine aminotransferase increased (serious TEAE): 6 (1) no. (%)
- COVID-19 (serious TEAE): 10 (2) no. (%)
- Cardiac failure (serious TEAE): 5 (1) no. (%)
- Deep vein thrombosis (serious TEAE): 2 (0.5) no. (%)
- Dyspnea (serious TEAE): 11 (3) no. (%)
- Hypoalbuminemia (serious TEAE): 0 no. (%)
- Hyponatremia (serious TEAE): 4 (1) no. (%)
- Infusion related reaction (serious TEAE): 0 no. (%)
- Interstitial lung disease (serious TEAE): 5 (1) no. (%)
- Pericardial effusion (serious TEAE): 5 (1) no. (%)
- Pleural effusion (serious TEAE): 17 (4) no. (%)
- Pneumonia (serious TEAE): 21 (5) no. (%)
- Pneumonitis (serious TEAE): 8 (2) no. (%)
- Pulmonary embolism (serious TEAE): 10 (2) no. (%)
- Rash (serious TEAE): 0 no. (%)
- Respiratory failure (serious TEAE): 2 (0.5) no. (%)
- Any event (treatment-related AE): 378 (88) no. (%)
- Any event resulting in death (treatment-related AE): 2 (0.5) no. (%)
- Any serious event (treatment-related AE): 24 (6) no. (%)
- Grade ≥3 (treatment-related AE): 59 (14) no. (%)
- Decreased appetite (treatment-related AE, All): 40 (9) no. (%)
- Dermatitis acneiform (treatment-related AE, All): 54 (13) no. (%)
- Diarrhea (treatment-related AE, All): 149 (35) no. (%)
- Dry skin (treatment-related AE, All): 54 (13) no. (%)
- Hypoalbuminemia (treatment-related AE, All): 11 (3) no. (%)
- Increased alanine aminotransferase (treatment-related AE, All): 38 (9) no. (%)
- Increased aspartate aminotransferase (treatment-related AE, All): 34 (8) no. (%)
- Infusion-related reaction (treatment-related AE, All): 0 no. (%)
- Nausea (treatment-related AE, All): 32 (7) no. (%)
- Paronychia (treatment-related AE, All): 115 (27) no. (%)
- Peripheral edema (treatment-related AE, All): 10 (2) no. (%)
- Pruritus (treatment-related AE, All): 63 (15) no. (%)
- Rash (treatment-related AE, All): 121 (28) no. (%)
- Stomatitis (treatment-related AE, All): 77 (18) no. (%)
- Thrombocytopenia (treatment-related AE, All): 75 (18) no. (%)
- Decreased appetite (treatment-related AE, Grade ≥3): 1 (0.2) no. (%)
- Dermatitis acneiform (treatment-related AE, Grade ≥3): 0 no. (%)
- Diarrhea (treatment-related AE, Grade ≥3): 2 (0.5) no. (%)
- Dry skin (treatment-related AE, Grade ≥3): 1 (0.2) no. (%)
- Hypoalbuminemia (treatment-related AE, Grade ≥3): 0 no. (%)
- Increased alanine aminotransferase (treatment-related AE, Grade ≥3): 4 (1) no. (%)
- Increased aspartate aminotransferase (treatment-related AE, Grade ≥3): 1 (0.2) no. (%)
- Infusion-related reaction (treatment-related AE, Grade ≥3): 0 no. (%)
- Nausea (treatment-related AE, Grade ≥3): 1 (0.2) no. (%)
- Paronychia (treatment-related AE, Grade ≥3): 2 (0.5) no. (%)
- Peripheral edema (treatment-related AE, Grade ≥3): 0 no. (%)
- Pruritus (treatment-related AE, Grade ≥3): 1 (0.2) no. (%)
- Rash (treatment-related AE, Grade ≥3): 3 (1) no. (%)
- Stomatitis (treatment-related AE, Grade ≥3): 1 (0.2) no. (%)
- Thrombocytopenia (treatment-related AE, Grade ≥3): 3 (1) no. (%)
